We go through three compounds from ChEMBL document CHEMBL1153691, “2-Deoxyadenylyl-(35)-isodideoxyadenosine, a unique dinucleotide: Synthesis, enzymology, and conformational studies” (Bioorg Med Chem Lett, 1995).

In data set [1] the test system is bovine spleen phosphodiesterase. Nature of the data set: Enzymatic stability was assessed with bovine spleen phosphodiesterase (BS PDE) exonuclase. In kind it is ADME, Bos taurus. Conditions: cattle, bovine spleen phosphodiesterase (BS PDE) exonuclease.
The subject of data set [2] is snake venom phosphodiesterase. The data set is described as follows: Enzymatic stability was assessed with snake venom phosphodiesterase (SV PDE) exonuclase. Type of data set: ADME. The following applies: serpentes, snake venom phosphodiesterase (SV PDE) exonuclease.
Data set [3] concerns the target Human immunodeficiency virus type 1 reverse transcriptase (Human immunodeficiency virus 1, UniProt Q72547). Nature of the data set: Inhibitory activity against HIV reverse transcriptase (HIV RT).

As to `Nc1ncnc2c1ncn2[C@@H]1CO[C@H](COP(=O)([O-])OC2C[C@H](n3cnc4c(N)ncnc43)OC2CO)C1.[Na+]` (stereo not given in full), the half-life was 50 min in data set [1] and more than 550 min in data set [2].

For the compound `Nc1ncnc2c1ncn2[C@H]1C[C@H](OP(=O)(O)OC[C@H]2O[C@@H](n3cnc4c(N)ncnc43)C[C@@H]2O)[C@@H](CO)O1`, the half-life in data set [1] is 1.5 min; in data set [2] it was less than 1 min.

Turning to `Nc1ncnc2c1ncn2C1COC(COP(=O)(O)OP(=O)(O)OP(=O)(O)O)C1` (stereo not given), the Ki in data set [3] came to 16 nM.
